Measurements as given in ChEMBL document CHEMBL3085634, “Identification of elaiophylin derivatives from the marine-derived actinomycete Streptomyces sp. 7-145 using PCR-based screening” (2013).
Converted amounts (≈) assume the structure as drawn.

Key:
Type in all cases: functional
Morganella morganii = assay: Antibacterial activity against beta-lactamase producing Morganella morganii ATCC 25830 assessed as growth inhibition after 18 hrs by agar dilution method; settings: ATCC 25830, 18 h
Pseudomonas aeruginosa = assay: Antibacterial activity against beta-lactamase producing Pseudomonas aeruginosa ATCC 27853 assessed as growth inhibition after 18 hrs by agar dilution method; settings: ATCC 27853, 18 h
Klebsiella pneumoniae [1] = assay: Antibacterial activity against New Delhi metallo-beta-lactamase 1 producing Klebsiella pneumoniae ATCC BAA-2146 assessed as growth inhibition after 18 hrs by agar dilution method; settings: ATCC BAA-2146, 18 h
Klebsiella pneumoniae [2] = assay: Antibacterial activity against extended spectrum beta-lactamase producing Klebsiella pneumoniae ATCC 700603 assessed as growth inhibition after 18 hrs by agar dilution method; settings: ATCC 700603, 18 h
Escherichia coli [3] = assay: Antibacterial activity against beta-lactamase producing Escherichia coli 09-20 assessed as growth inhibition after 18 hrs by agar dilution method; settings: 09-20, 18 h
Escherichia coli [4] = assay: Antibacterial activity against extended spectrum beta-lactamase producing Escherichia coli 09-1 assessed as growth inhibition after 18 hrs by agar dilution method; settings: 09-1, 18 h
Micrococcus luteus = assay: Antibacterial activity against apramycin-resistant Micrococcus luteus ATCC 10240 assessed as growth inhibition after 18 hrs by agar dilution method; settings: ATCC 10240, 18 h
Enterococcus faecium [5] = assay: Antibacterial activity against vancomycin-sensitive Enterococcus faecium 09-10 assessed as growth inhibition after 18 hrs by agar dilution method; settings: 09-10, 18 h
Enterococcus faecium [6] = assay: Antibacterial activity against vancomycin-resistant Enterococcus faecium ATCC 700221 assessed as growth inhibition after 18 hrs by agar dilution method; settings: ATCC 700221, 18 h
Enterococcus faecalis [7] = assay: Antibacterial activity against vancomycin-resistant Enterococcus faecalis R6512 assessed as growth inhibition after 18 hrs by agar dilution method; settings: R6512, 18 h
Enterococcus faecalis [8] = assay: Antibacterial activity against vancomycin-resistant Enterococcus faecalis W4138 assessed as growth inhibition after 18 hrs by agar dilution method; settings: W4138, 18 h
Enterococcus faecalis [9] = assay: Antibacterial activity against vancomycin-resistant Enterococcus faecalis ATCC 51299 assessed as growth inhibition after 18 hrs by agar dilution method; settings: ATCC 51299, 18 h
Enterococcus faecalis [10] = assay: Antibacterial activity against vancomycin-sensitive Enterococcus faecalis 09-8 assessed as growth inhibition after 18 hrs by agar dilution method; settings: 09-8, 18 h
Enterococcus faecalis [11] = assay: Antibacterial activity against vancomycin-sensitive Enterococcus faecalis ATCC 29212 assessed as growth inhibition after 18 hrs by agar dilution method; settings: ATCC 29212, 18 h
[12] = system: Staphylococcus epidermidis; assay: Antibacterial activity against methicillin-resistant Staphylococcus epidermidis 09-3 assessed as growth inhibition after 18 hrs by agar dilution method; settings: 09-3, 18 h
Staphylococcus aureus [13] = assay: Antibacterial activity against thiostrepton-resistant Staphylococcus aureus ATCC 6538P assessed as growth inhibition after 18 hrs by agar dilution method
Staphylococcus aureus [14] = assay: Antibacterial activity against methicillin-resistant Staphylococcus aureus R6101 assessed as growth inhibition after 18 hrs by agar dilution method; settings: R6101, 18 h
Staphylococcus aureus [15] = assay: Antibacterial activity against methicillin-resistant Staphylococcus aureus 09-13 assessed as growth inhibition after 18 hrs by agar dilution method; settings: 09-13, 18 h
Staphylococcus aureus [16] = assay: Antibacterial activity against methicillin-resistant Staphylococcus aureus ATCC 33591 assessed as growth inhibition after 18 hrs by agar dilution method; settings: ATCC 33591, 18 h
Staphylococcus aureus [17] = assay: Antibacterial activity against methicillin-sensitive Staphylococcus aureus 09-6 assessed as growth inhibition after 18 hrs by agar dilution method; settings: 09-6, 18 h
Staphylococcus aureus [18] = assay: Antibacterial activity against methicillin-sensitive Staphylococcus aureus ATCC 29213 assessed as growth inhibition after 18 hrs by agar dilution method; settings: ATCC 29213, 18 h
[19] = system: Staphylococcus epidermidis; assay: Antibacterial activity against methicillin-sensitive Staphylococcus epidermidis ATCC 12228 assessed as growth inhibition after 18 hrs by agar dilution method; settings: ATCC 12228, 18 h
[20] = system: Staphylococcus epidermidis; assay: Antibacterial activity against methicillin-sensitive Staphylococcus epidermidis 09-9 assessed as growth inhibition after 18 hrs by agar dilution method; settings: 09-9, 18 h

Row | Compound | MIC (Morganella morganii) [µg/mL] | MIC (Pseudomonas aeruginosa) [µg/mL] | MIC (Klebsiella pneumoniae [1]) [µg/mL] | MIC (Klebsiella pneumoniae [2]) [µg/mL] | MIC (Escherichia coli [3]) [µg/mL] | MIC (Escherichia coli [4]) [µg/mL] | MIC (Micrococcus luteus) [µg/mL] | MIC (Enterococcus faecium [5]) [µg/mL] | MIC (Enterococcus faecium [6]) [µg/mL] | MIC (Enterococcus faecalis [7]) [µg/mL] | MIC (Enterococcus faecalis [9]) [µg/mL] | MIC (Enterococcus faecalis [10]) [µg/mL] | MIC (Enterococcus faecalis [11]) [µg/mL] | MIC [12] [µg/mL] | MIC (Staphylococcus aureus [14]) [µg/mL] | MIC (Staphylococcus aureus [15]) [µg/mL] | MIC (Staphylococcus aureus [16]) [µg/mL] | MIC (Staphylococcus aureus [17]) [µg/mL] | MIC (Staphylococcus aureus [18]) [µg/mL] | MIC [19] [µg/mL] | further results
1 | CC[C@H]1OC(=O)[C@H](C)[C@@H](O[C@H]2C[C@@](C)(OC)[C@@H](O)[C@H](C)O2)[C@H](C)[C@@H](O[C@@H]2O[C@H](C)C[C@H](N(C)C)[C@H]2O)[C@](C)(O)C[C@@H](C)CN(C)[C@H](C)[C@@H](O)[C@]1(C)O [AZITHROMYCIN] | 64 (≈ 85.4 µM) | 256 (≈ 342 µM) | 64 (≈ 85.4 µM) | 64 (≈ 85.4 µM) | > 256 | 64 (≈ 85.4 µM) | 2 (≈ 2.67 µM) | > 256 | > 256 | > 256 | > 256 | > 256 | 8 (≈ 10.7 µM) | > 256 | > 256 | > 256 | > 256 | 2 (≈ 2.67 µM) | 2 (≈ 2.67 µM) | > 256 | MIC (Enterococcus faecalis [8]): > 256 µg/mL; MIC (Staphylococcus aureus [13]): > 256 µg/mL
2 | CC[C@@H]1[C@@H](C)O[C@@](OC)([C@@H](C)[C@H](O)[C@H](C)[C@H]2OC(=O)/C=C/C=C/[C@H](C)[C@@H]([C@@H](C)[C@@H](O)[C@H](C)[C@@]3(OC)C[C@@H](O[C@H]4C[C@H](O)[C@H](O)[C@H](C)O4)[C@H](CC)[C@@H](C)O3)OC(=O)/C=C/C=C/[C@@H]2C)C[C@H]1O[C@H]1C[C@H](O)[C@H](O)[C@H](C)O1 | > 256 | > 256 | > 256 | > 256 | > 256 | > 256 |  | 32 (≈ 30.4 µM) |  |  |  |  |  |  |  |  |  |  |  |  | 
3 | CC[C@@H]1[C@@H](C)O[C@@](OC)([C@@H](C)[C@H](O)[C@H](C)[C@H]2OC(=O)/C=C/C=C/[C@H](C)[C@@H]([C@@H](C)[C@@H](O)[C@H](C)[C@@]3(O)C[C@@H](O[C@H]4C[C@H](O)[C@H](O)[C@H](C)O4)[C@H](CC)[C@@H](C)O3)OC(=O)/C=C/C=C/[C@@H]2C)C[C@H]1O[C@H]1C[C@H](O)[C@H](O)[C@H](C)O1 | > 256 | > 256 | > 256 | > 256 | > 256 | > 256 | 2 (≈ 1.92 µM) | 2 (≈ 1.92 µM) | 2 (≈ 1.92 µM) | 1 (≈ 0.962 µM) | 1 (≈ 0.962 µM) | 2 (≈ 1.92 µM) | 32 (≈ 30.8 µM) | 2 (≈ 1.92 µM) | 1 (≈ 0.962 µM) | 2 (≈ 1.92 µM) | 2 (≈ 1.92 µM) | 2 (≈ 1.92 µM) | 2 (≈ 1.92 µM) | 2 (≈ 1.92 µM) | MIC (Enterococcus faecalis [8]): 2 µg/mL (≈ 1.92 µM); MIC [20]: 2 µg/mL (≈ 1.92 µM); MIC (Staphylococcus aureus [13]): 2 µg/mL (≈ 1.92 µM)
4 | CC[C@H]1OC(=O)[C@H](C)[C@@H](O[C@H]2C[C@@](C)(OC)[C@@H](O)[C@H](C)O2)[C@H](C)[C@@H](O[C@@H]2O[C@H](C)C[C@H](N(C)C)[C@H]2O)[C@](C)(O)C[C@@H](C)C(=O)[C@H](C)[C@@H](O)[C@]1(C)O [ERYTHROMYCIN] | > 256 | > 256 | > 256 | > 256 | > 256 | > 256 |  | > 256 | 64 (≈ 87.2 µM) |  | 8 (≈ 10.9 µM) | 32 (≈ 43.6 µM) | 16 (≈ 21.8 µM) | > 256 |  | > 256 | 256 (≈ 349 µM) | 0.25 (≈ 0.341 µM) | 0.25 (≈ 0.341 µM) | 16 (≈ 21.8 µM) | 
5 | Cc1onc(-c2ccccc2)c1C(=O)N[C@@H]1C(=O)N2[C@@H]1SC(C)(C)[C@@H]2C(=O)O [OXACILLIN] | 256 (≈ 638 µM) | > 256 | > 256 | > 256 | > 256 | > 256 |  | > 256 | > 256 |  | > 256 | > 256 | 4 (≈ 9.96 µM) | > 256 | > 256 | > 256 | > 256 | 0.5 (≈ 1.25 µM) | 0.5 (≈ 1.25 µM) | > 256 | 
